US6492174B1, “Methods of initiating embryogenic cultures in plants” (Institute of Paper Science & Technology, priority 2000, dated 2002)

Experiments:
[1] = system: Norway spruce zygotic embryos; test: Norway spruce initiation after ABA pre-treatment of seed or explant, ten weeks; format: cell-based
Description: In this Example, various ABA pre-treatment methods are compared.
Explants were zygotic embryos flipped out of the megagametophyte, prepared as in Example 1. The experiment consisted of four replications, with a replication consisting of ten explants in a single petri dish. Explants were cultured on solid media lacking ABA.
The treatments were designed to investigate the effects of pre-treating the whole seed compared to treating the explant (i.e. the embryo and megagametophyte) after their removal from the seed. It is presumed that soaking a whole seed will result in less ABA uptake by the megagametophyte and embryo than soaking them directly in ABA due to their being surrounded by seed tissue. Two treatments also compared the effect of the pH of the ABA solution. In Treatment #1, the control, seeds were soaked in water for 24 hours, and then explants were prepared as in Example 1. In Treatment #2, seeds were soaked in 5 ppm ABA for 24 hours prior to explant removal. In Treatment #3, seeds were soaked in 20 ppm ABA for 24 hours prior to explant removal. In Treatment #4, seeds were soaked in water for 24 hours and then the explants were removed and soaked in a 5 ppm ABA solution of pH 4.5 for 30 minutes. In Treatment #5 seeds were soaked in water for 24 hours and then the explants were removed and soaked in a 5 ppm ABA solution of pH 5.5 for 30 minutes. After ten weeks, the explants were examined and the frequency of embryogenic culture initiation was scored (Table 44).

[2] = system: cultured cells of Onosma paniculatum; conditions: media containing 0.01 ppb brassinolide; cited from earlier work
[3] = system: rice (Oryza sativa) cultivar Taipei 309 dehulled seeds; test: Rice embryogenic callus diameter on MS media with 2.0 mg/l 2,4-D, two weeks; format: cell-based; conditions: for Callus Diameter (mm) + (std. error): two weeks
Description: In this experiment, brassinolide and elevated atmospheric pressure improved the initiation of embryogenic cultures in rice (Oryza sativa). Rice, an annual angiosperm, is quite taxonomically distant from the conifers used in previous examples. However, as this example makes clear, brassinosteroids and elevated atmospheric pressure effectively increase embryogenic culture initiation of in a wide variety of species.
In this experiment, four initiation treatments were studied, using explants from mature Japaonica rice seeds (cultivar Taipei 309). The explants were dehulled sterilized seeds. About 400 mature seeds were dehulled and surface sterilized in a 5.25% bleach solution for 25 minutes and then rinsed three times with sterile deionized water. About 70 explants were placed into each of four treatment petri dishes containing solid media. The explants were placed with the embryo side up. The basal media was a Murashige and Skoog (MS) media containing 2.0 mg/l 2,4-D. Plates were wrapped in PARAFILM and cultured in the dark at 27° for two weeks.
Treatment 1, the control treatment, consisted of the above-described basal media, contained no brassinolide, and was cultured at atmospheric pressure. Treatment 2 contained the basal media and was cultured at 1.5 atm of pressure. Treatment 3 contained basal to which 0.1 μM brassinolide was added and was cultured at normal atmospheric pressure. Treatment 4 contained basal media to which 1 μM brassinolide was added and was cultured at atmospheric pressure.
After two weeks, embryogenic callus had developed on most of the explants. The embryogenic callus formed in spherical formations around the embryo. During culture, the scutellum elongated and the embryogenic calli formed masses around the base of the scutellum, covering and obscuring the rest of the embryo. Initiation was scored by measuring the diameter of the embrygenic callus on each explant. A larger callus contains more somatic embryos and thus has a greater potential to supply viable embryos for subsequent regeneration of whole plants. Callus size was measured by observing callus under a dissecting scope fitted with an ocular measurement device allowing accurate measurements to 0.1 mm.

[4] = system: Loblolly pine megagametophytes; test: Loblolly pine extrusion and initiation immersed in liquid media #1071 with brassinolide, eight weeks; format: cell-based
Description: In Examples 4 and 5, the effect of varying brassinolide concentration in a solid media was measured. This experiment was conducted to determine the optimal concentration of brassinolide in a liquid media. The explants in this experiment were megagametophytes isolated from the cones of four open-pollinated trees representing a multiplicity of genotypes. The seeds contained Stage 2-4 zygotic embryos. Seeds were sterilized as described in Example 1. Seed coats were split and the megagametophytes were isolated by removing integuments and nucellus. Isolated megagametophytes were wholly immersed in liquid media #1071 (Table 47) containing varying concentrations of brassinolide. The five treatments consisted of media containing zero, 0.05, 0.1, 0.15 and 0.2 μM brassinolide (Table 16). Two ml of each media was poured into wells on culture well plates. […]. The experiment consisted of four replications per treatment, per cone collection.
Nevertheless, overall extrusion frequency was increased in the brassinolide treatments as compared to the control (Table 17). Initiation frequency was increased by the addition of brassinolide from 0.05 to 0.2 μM (Table 18). […] Nevertheless, one of skill in the art could empirically determine the upper and lower effective concentration of brassinolide which is effective in promoting initiation in a liquid media.

CC1=CC(=O)CC(C)(C)C1(O)/C=C/C(C)=C\C(=O)O (centres unmarked) [ABA, 5-(1-hydroxy-2,6,6,-trimethyl-4-oxo-2-cyclohexen-1-yl)-3-methyl-2,4-penta dienoic acid]
% Initiating (std. error) ([1]; explant soaked in 5 ppm ABA (pH 4.5), 30 minutes): 31.2 (12.2) %
% Initiating (std. error) ([1]; explant soaked in 5 ppm ABA (pH 5.5), 30 minutes): 22.0 (3.0) %
% Initiating (std. error) ([1]; seed soaked in 5 ppm ABA, 24 hours): 15.1 (6.6) %
% Initiating (std. error) ([1]; seed soaked in 20 ppm ABA, 24 hours): 24.0 (5.4) %

CC(C)[C@H](C)[C@@H](O)[C@H](O)[C@@H](C)[C@H]1CC[C@H]2[C@@H]3COC(=O)[C@H]4C[C@H](O)[C@H](O)C[C@]4(C)[C@H]3CC[C@]12C [brassinolide]
growth of cultured cells [2]: slightly increased growth
average callus size vs control ([3]; 0.1 μM brassinolide): significantly increased
average callus size vs control ([3]; 1.0 μM brassinolide): did not increase callus size
Callus Diameter (mm) + (std. error) ([3]; +0.1 μM Brassinolide): 4.70 (0.13) mm
Callus Diameter (mm) + (std. error) ([3]; +1.0 μM Brassinolide): 4.19 (0.12) mm
Initiation frequency vs control ([4]; brassinolide from 0.05 to 0.2 μM, liquid media): increased
% of Megagametophytes Extruding ([4]; genotype FN, 0.05 μM Br): 32.5 (12.5) %
% of Megagametophytes Initiating ([4]; genotype FN, 0.05 μM Br): 20.0 (10.8) %
% of Megagametophytes Extruding ([4]; genotype FN, 0.10 μM Br): 15.0 (6.5) %
% of Megagametophytes Initiating ([4]; genotype FN, 0.10 μM Br): 10.0 (4.1) %
% of Megagametophytes Extruding ([4]; genotype FN, 0.15 μM Br): 40.0 (20.4) %
% of Megagametophytes Initiating ([4]; genotype FN, 0.15 μM Br): 20.0 (12.2) %
% of Megagametophytes Extruding ([4]; genotype FN, 0.2 μM Br): 50.0 (18.3) %
% of Megagametophytes Initiating ([4]; genotype FN, 0.2 μM Br): 35.0 (15.0) %
% of Megagametophytes Extruding ([4]; genotype FO, 0.05 μM Br): 0.0 (0) %
% of Megagametophytes Initiating ([4]; genotype FO, 0.05 μM Br): 0 (0) %
% of Megagametophytes Extruding ([4]; genotype FO, 0.10 μM Br): 0.0 (0) %
% of Megagametophytes Initiating ([4]; genotype FO, 0.10 μM Br): 0 (0) %
% of Megagametophytes Extruding ([4]; genotype FO, 0.15 μM Br): 0.0 (0) %
% of Megagametophytes Initiating ([4]; genotype FO, 0.15 μM Br): 0 (0) %
% of Megagametophytes Extruding ([4]; genotype FO, 0.2 μM Br): 0.0 (0) %
% of Megagametophytes Initiating ([4]; genotype FO, 0.2 μM Br): 0 (0) %
% of Megagametophytes Extruding ([4]; genotype FX, 0.05 μM Br): 17.5 (6.3) %
% of Megagametophytes Initiating ([4]; genotype FX, 0.05 μM Br): 17.5 (6.3) %
% of Megagametophytes Extruding ([4]; genotype FX, 0.10 μM Br): 27.5 (12.5) %
% of Megagametophytes Initiating ([4]; genotype FX, 0.10 μM Br): 25.0 (10.4) %
% of Megagametophytes Extruding ([4]; genotype FX, 0.15 μM Br): 15.0 (5.0) %
% of Megagametophytes Initiating ([4]; genotype FX, 0.15 μM Br): 12.5 (4.8) %
% of Megagametophytes Extruding ([4]; genotype FX, 0.2 μM Br): 17.5 (4.8) %
% of Megagametophytes Initiating ([4]; genotype FX, 0.2 μM Br): 17.5 (4.8) %
% of Megagametophytes Extruding ([4]; genotype FZ, 0.05 μM Br): 0.0 (0) %
% of Megagametophytes Initiating ([4]; genotype FZ, 0.05 μM Br): 0 (0) %
% of Megagametophytes Extruding ([4]; genotype FZ, 0.10 μM Br): 2.5 (2.5) %
% of Megagametophytes Initiating ([4]; genotype FZ, 0.10 μM Br): 2.5 (2.5) %
% of Megagametophytes Extruding ([4]; genotype FZ, 0.15 μM Br): 2.5 (2.5) %
% of Megagametophytes Initiating ([4]; genotype FZ, 0.15 μM Br): 2.5 (2.5) %
% of Megagametophytes Extruding ([4]; genotype FZ, 0.2 μM Br): 0.0 (0) %
% of Megagametophytes Initiating ([4]; genotype FZ, 0.2 μM Br): 0 (0) %
% of Megagametophytes Extruding ([4]; total, 0.05 μM Br): 12.5%
% of Megagametophytes Initiating ([4]; total, 0.05 μM Br): 9.4%
% of Megagametophytes Extruding ([4]; total, 0.10 μM Br): 11.3%
% of Megagametophytes Initiating ([4]; total, 0.10 μM Br): 9.4%
% of Megagametophytes Extruding ([4]; total, 0.15 μM Br): 14.4%
% of Megagametophytes Initiating ([4]; total, 0.15 μM Br): 8.8%
% of Megagametophytes Extruding ([4]; total, 0.2 μM Br): 16.9%
% of Megagametophytes Initiating ([4]; total, 0.2 μM Br): 13.1%
